In patent publication US12281329B2, “Compositions and methods for immune cell modulation in adoptive immunotherapies” (Fate Therapeutics, Inc., priority 2016, dated 2025):

Columns and labels:
K562 cells = test: NK cell cytotoxicity assay, K562 target cells; format: cell-based; conditions: 1 μM STING agonist added to 7 day 10 ng/mL IL-15 + 5 μM CHIR99021 culture; 4 hours
Description: (§1) NK Cell Cytotoxicity Assay: Cytotoxicity was determined using a flow cytometry based method based on a previously published method (Kim, et al. J Immunol Methods. 2007 Aug. 31; 325(1-2): 51-66). NK cells were co-cultured with e450-proliferation dye-labelled targets for 4 hours. CellEvent™ Caspase-3/7 Green Flow Cytometry Assay Kit (Lifer Technologies) was used to assay for cell death among target cells, and samples were read on a BD LSRFortessa cytometer. Killing of SKOV-3 targets was quantified using the Incucyte Zoom instrument. SKOV-3 cells were transiently transduced with NucLight-Red BacMam reagent (Essen Biosciences) and co-cultured with the indicated NK cell populations for 74 hours, with images taken on two hour intervals. Caspase 3/7 activity was monitored to indicate target cells undergoing apoptosis using the CellEvent™ Caspase-3/7 Green Detection Reagent. The number of target cells was normalized to SKOV-3 cells cultured alone, and targets undergoing apoptosis were quantified based on caspase 3/7 activity.
The ability of GSK3 inhibition to enhance cytotoxicity of NK cells isolated directly from donors was assessed using in vitro killing assays. […] depleted PBMC population was treated overnight with 10 ng/mL IL-15 only (primed), or a 7 day culture combination of 10 ng/mL IL-15 and 5 μM CHIR99021. The target cells for the killing assays included K562 cells, CD20+ Raji cells, HER2+ SKOV3 cells and HER2+A549 cells. The E:T (Effector:Target) ratio applied to each assay ranged from 0.1, 0.5, 1, 5 to 10. After the target cells were incubated with the differently treated NK cells for 4 hours, the respective percentage of specific killing (target cell lysis) was calculated. […] Raji cells are less prone to NK mediated cytotoxicity.
(§2) The ability of STING agonist to enhance cytotoxicity of GSK3i multiday modulated NK cells was assessed using in vitro killing assays. […]

Nalm6 cells = test: NK cell cytotoxicity assay, Nalm6 target cells; format: cell-based, human; conditions: 1 μM STING agonist added to 7 day 10 ng/mL IL-15 + 5 μM CHIR99021 culture; 4 hours
Description: as §1, §2

KG-1 cells = test: NK cell cytotoxicity assay, KG-1 target cells; format: cell-based, human; conditions: 1 μM STING agonist added to 7 day 10 ng/mL IL-15 + 5 μM CHIR99021 culture; 4 hours
Description: as §1, §2

NK cells = test: 7 day NK culture with IL15, GSK3i and/or STING agonist: phenotype by flow cytometry; format: cell-based, human
Description: CD3/CD19 depleted PBMC were cultured for 7 days in the presence of 10 ng/ml IL15 and (1) DMSO (vehicle); (2) […] GSK3i (CHIR99021); (3) 1 μM STING agonist (ML RR-S2 CDA); or (4) […] GSK3i+1 μM STING agonist. On day 7, NK cell function and phenotype was assessed by intracellular cytokine staining, cytotoxicity assays, and flow cytometry. […] The frequency of CD107a+ NK cells after incubation with K562 cells was increased for cells cultured for 7 days with IL-15+GSK3i+STING agonist compared to cells cultured with IL-15+GSK3i only (FIG. 16C). Increased cell surface CD107a expression is associated with enhanced degranulation and cytotoxic potential of NK cells in the presence of STING agonist in combination with GSK3i.
Natural Killer (NK) cells recognize and destroy tumors and virus-infected cells in an antibody-independent manner. The regulation of NK cells is mediated by activating and inhibiting receptors on the NK cell surface. One important family of activating receptors is the natural cytotoxicity receptors (NCRs) which include NKp30, NKp44 and NKp46. The NCRs initiate tumor targeting by recognition of their specific ligands on cancer cells.

Nc1ncnc2c1ncn2[C@@H]1O[C@@H]2COP(O)(=S)O[C@@H]3C(O)[C@@H](COP(O)(=S)O[C@H]2[C@H]1O)O[C@H]3n1cnc2c(N)ncnc21 (stereo partly drawn) [ML RR-S2 CDA]
cytotoxicity (specific killing) against K562 cells (K562 cells): enhanced
cytotoxicity (specific killing) against Nalm6 cells (Nalm6 cells): enhanced
cytotoxicity (specific killing) against KG-1 cells (KG-1 cells): enhanced
effect on adaptive NK phenotype and total NK number (NK cells; 7 days, 10 ng/ml IL15, 1 μM STING agonist): limited effect
total CD57+NK number (NK cells; FIG. 15A): limited effect
CD57+NKG2C+NK phenotype (NK cells; FIG. 15B): limited effect
